Data published in US20110269799A1 (priority 2008, published 2011).
“And” between values parts separate entries of the source, which are not always exact repeats. Equal entries are not always repeated. Where two headings read alike, the source gives them in different places. Marks after values point to notes of the source that are not given here.

Legend:
[1] = test system: patients with chronic atrial fibrillation; test: PETRO phase 2 12-week dose finding study, dabigatran etexilate alone or with aspirin vs. warfarin; assay type: in vivo, human
Source text: Primary endpoints were bleeding events and changes in D-dimer. […] Minor bleeding was dose related.

[2] = test system: patients with atrial fibrillation
Experimental: PETRO-Ex began while the PETRO study was ongoing and investigators were initially kept blinded to patient treatment group until PETRO was completed. Unblinding investigators to patient treatment was possible thereafter.
Data were summarized descriptively; no hypothesis was to be tested. Events were analyzed on the basis of the treatment at onset. Incidences were reported as number of patients with events as well as normalized to 100 patient-years on the respective treatment.
Patients who completed PETRO on 50 mg b.i.d. were switched to 150 mg q.d. upon entry in the PETRO-Ex study (N=93 patients). […] Patients who were down titrated to 50 mg q.d. based on a glomerular filtration rate<50 mL/min during PETRO were excluded from the long-term trial; patients down-titrated in other dose levels remained on the q.d. treatment at that dose.

[3] = test system: cytochrome P-450 drug metabolizing enzymes; test: Cytochrome P-450 metabolism, induction and inhibition; assay type: in vitro ADME
[4] = test system: patients with atrial fibrillation at risk of stroke
Source text: Median follow-up was 2.0 years and the primary outcome was stroke or systemic embolism.
Patients were recruited from 951 clinical centers in 44 countries. In brief, patients were eligible if they had atrial fibrillation documented on electrocardiogram at screening or within 6 months; and at least one of the following: prior stroke or transient ischemic attack; left ventricular ejection fraction less than 40%; New York Heart Association heart failure symptoms of Class 2 or greater within 6 months; age at least 75 years; or age at least 65 years with diabetes mellitus, hypertension or coronary artery disease.
The time in therapeutic range was calculated by the method of Rosendaal (Rosendaal F R, et al., A method to determine the optimal intensity of oral anticoagulant therapy, Thromb Haemost, 1993, 69:236-239), excluding INRs from the first week and after discontinuations. […] Concomitant use of aspirin (less than 100 mg/day) or other antiplatelet agents was allowed.
Liver function testing was performed monthly during the first year of follow-up.
The primary study outcome was stroke or systemic embolism. The primary safety outcome was major hemorrhage. Secondary outcomes were stroke, systemic embolism and death. Other outcomes were myocardial infarction, pulmonary embolism, transient ischemic attacks, and hospitalizations. The primary net benefit-risk outcome was the composite of stroke, systemic embolism, pulmonary embolism, myocardial infarction, death or major hemorrhage. Stroke was defined as sudden onset of focal neurological deficit consistent with the territory of a major cerebral artery and categorized as ischemic, hemorrhagic or unspecified. Hemorrhagic transformation of ischemic stroke was not considered as hemorrhagic stroke. Intracranial hemorrhage included hemorrhagic stroke and sub-dural or sub-arachnoid hemorrhage. Systemic embolism was an acute vascular occlusion of an extremity or organ documented by imaging, surgery or autopsy. Major bleeding was defined as a reduction in hemoglobin level of at least […] or transfusion of at least 2 units of blood or symptomatic bleeding in a critical area or organ. Life-threatening bleeding was a subset of major bleeding that included fatal bleeding, symptomatic intracranial bleeding, bleeding with hemoglobin decrease of more than […] or requiring transfusion of more than 4 units of blood or requiring inotropic agents or necessitating surgery. All other bleeding was considered minor.
All primary and secondary outcome events were blindly and doubly adjudicated. An international team of adjudicators reviewed documents in local languages after blinding; or documents were translated by a independent group and blinded centrally. All transient ischemic attacks were reviewed to ensure that strokes had not been missed. To detect possible unreported events, symptom questionnaires were regularly administered to patients, and adverse events and hospitalization reports were scrutinized for unreported primary or secondary outcomes.
If maximum of the two p-values was greater than 0.025, the minimum of the two p-values must be less than 0.0125, one-sided, to claim statistical significance. All analyses were based on intention-to-treat.

[5] = individual patients with LFT abnormalities, one patient (age, sex) per table line

CCCCCCOC(=O)NC(=N)c1ccc(NCc2nc3cc(C(=O)N(CCC(=O)OCC)c4ccccn4)ccc3n2C)cc1 [Dabigatran etexilate, 1-methyl-2-[N-[4-(N-n-hexyloxycarbonylamidino)phenyl]aminomethyl]benzimidazol-5-ylcarboxylic acid-N-(2-pyridyl)-N-(2-ethoxycarbonylethyl)amides]
Major bleeding events ([1]; 300 mg b.i.d. plus ASA groups, 12 weeks): 6%
Minor bleeding ([1]; 50, 150, 300 mg b.i.d.): dose related
Elevated transaminases >3x upper limit of normal (ULN) ([1]; all dabigatran etexilate-treated patients (432)): 0.9%
Adverse Events leading to premature discontinuation, rate ([2]; 50 mg b.i.d.): 21.3 % per year
Thromboembolic events ([2]; 50 mg b.i.d.): more than 12 events per 100 years
ALT or AST > 2xULN, rate ([2]; 150 mg b.i.d.): 3.1 % per year
ALT or AST > 3xULN and Bili > 2xULN within 30 days, rate ([2]; 150 mg b.i.d.): 0.4 % per year
ALT or AST > 3xULN, rate ([2]; 150 mg b.i.d.): 1.9 % per year
ALT or AST > 5xULN, rate ([2]; 150 mg b.i.d.): 1.0 % per year
Adverse Events leading to premature discontinuation, rate ([2]; 150 mg b.i.d.): 9.8 % per year
Major Bleeds, of these without aspirin, rate ([2]; 150 mg b.i.d.): 3.2 % per year
Major Bleeds, rate ([2]; 150 mg b.i.d.): 4.2 % per year
Major Bleeds, with aspirin, rate ([2]; 150 mg b.i.d.): 8.7 % per year
Stroke and Systemic Thromboembolism, rate ([2]; 150 mg b.i.d.): 1.0 % per year
ALT or AST > 2xULN, rate ([2]; 150 mg q.d.): 3.4 % per year
Adverse Events leading to premature discontinuation, rate ([2]; 150 mg q.d.): 13.7 % per year
Major Bleeds, of these without aspirin, rate ([2]; 150 mg q.d.): 6.5 % per year
Major Bleeds, rate ([2]; 150 mg q.d.): 5.1 % per year
Thromboembolic events ([2]; 150 mg q.d., per 100 years): about 5 events
ALT or AST > 2xULN, rate ([2]; 300 mg b.i.d.): 4.9 % per year
ALT or AST > 3xULN, rate ([2]; 300 mg b.i.d.): 2.4 % per year
ALT or AST > 5xULN, rate ([2]; 300 mg b.i.d.): 1.2 % per year
Adverse Events leading to premature discontinuation, rate ([2]; 300 mg b.i.d.): 25.6 % per year
Bleeding events ([2]; 300 mg b.i.d.): more than 12 per 100 years
Major Bleeds, of these without aspirin, rate ([2]; 300 mg b.i.d.): 6.3 % per year
Major Bleeds, rate ([2]; 300 mg b.i.d.): 12.2 % per year
Major Bleeds, with aspirin, rate ([2]; 300 mg b.i.d.): 32.7 % per year
Thromboembolic events ([2]; 300 mg b.i.d.): about 1 event per 100 years
ALT or AST > 2xULN, rate ([2]; 300 mg q.d.): 1.5 % per year
ALT or AST > 3xULN and Bili > 2xULN within 30 days, rate ([2]; 300 mg q.d.): 0.5 % per year
ALT or AST > 3xULN, rate ([2]; 300 mg q.d.): 1.5 % per year
ALT or AST > 5xULN, rate ([2]; 300 mg q.d.): 1.5 % per year
Adverse Events leading to premature discontinuation, rate ([2]; 300 mg q.d.): 9.6 % per year
Major Bleeds, of these without aspirin, rate ([2]; 300 mg q.d.): 2.1 % per year
Major Bleeds, rate ([2]; 300 mg q.d.): 2.5 % per year
Major Bleeds, with aspirin, rate ([2]; 300 mg q.d.): 3.6 % per year
Thromboembolic events ([2]; 300 mg q.d., per 100 years): more than 2 events
Major bleeding events (per 100 patient years) ([2]; PETRO-Ex, 150 mg b.i.d., without concomitant aspirin): 3.2%*
LFT abnormalities > 3 xULN (per 100 patient years) ([2]; PETRO-Ex, all doses): 1.7%
ALT or AST > 2xULN, rate ([2]; Total, all doses): 2.9 % per year
ALT or AST > 3xULN and Bili > 2xULN within 30 days, rate ([2]; Total, all doses): 0.4 % per year
ALT or AST > 3xULN, rate ([2]; Total, all doses): 1.7 % per year
ALT or AST > 5xULN, rate ([2]; Total, all doses): 1.1 % per year
Adverse Events leading to premature discontinuation, rate ([2]; Total, all doses): 11.5 % per year
Major Bleeds, of these without aspirin, rate ([2]; Total, all doses): 3.2 % per year
Major Bleeds, rate ([2]; Total, all doses): 4.2 % per year
Major Bleeds, with aspirin, rate ([2]; Total, all doses): 8.5 % per year
Metabolism by, induction or inhibition of cytochrome P-450 enzymes [3]: not metabolized by and does not induce or inhibit cytochrome P-450 drug metabolizing enzymes

[H]/N=C(/N)c1ccc(NCc2nc3cc(C(=O)N(CCC(=O)O)c4ccccn4)ccc3n2C)cc1 [Dabigatran]
Change in D-dimer levels ([1]; 12 weeks): comparable to warfarin
Rate of hemorrhagic stroke ([4]; 110 mg b.i.d.): 0.12 % per year
Stroke, Ischemic or Unspecified, Rate ([4]; 110 mg b.i.d.): 1.35 /100 Person Years
Stroke, systemic embolism, pulmonary embolism, myocardial infarction death or major bleed (net benefit), Rate ([4]; 110 mg b.i.d.): 7.37 /100 Person Years
Extracranial Bleeding, RR ([4]; 110 mg vs. Warfarin): 0.93
First Hospitalization, RR ([4]; 110 mg vs. Warfarin): 0.92
Non-disabling Stroke Modified Rankin 0-2, RR ([4]; 110 mg vs. Warfarin): 0.87
Stroke or systemic embolism, RR ([4]; 110 mg vs. Warfarin): 0.91
Stroke, Hemorrhagic, RR ([4]; 110 mg vs. Warfarin): 0.31
Stroke, RR ([4]; 110 mg vs. Warfarin): 0.92
Stroke, systemic embolism, pulmonary embolism, myocardial infarction death or major bleed (net benefit), RR ([4]; 110 mg vs. Warfarin): 0.92
Rate of hemorrhagic stroke ([4]; 150 mg b.i.d.): 0.10 % per year
Stroke, systemic embolism, pulmonary embolism, myocardial infarction death or major bleed (net benefit), Rate ([4]; 150 mg b.i.d.): 7.22 /100 Person Years
Stroke, Ischemic or Unspecified, RR ([4]; 150 mg vs. 110 mg): 0.68
Stroke, RR ([4]; 150 mg vs. 110 mg): 0.70
Stroke, systemic embolism, pulmonary embolism, myocardial infarction death or major bleed (net benefit), RR ([4]; 150 mg vs. 110 mg): 0.98
First Hospitalization, RR ([4]; 150 mg vs. Warfarin): 0.97
Major Bleeding, Other Major, RR ([4]; 150 mg vs. Warfarin): 1.07
Non-disabling Stroke Modified Rankin 0-2, RR ([4]; 150 mg vs. Warfarin): 0.62
Stroke or systemic embolism, RR ([4]; 150 mg vs. Warfarin): 0.66
Stroke, Hemorrhagic, RR ([4]; 150 mg vs. Warfarin): 0.26
Stroke, Ischemic or Unspecified, RR ([4]; 150 mg vs. Warfarin): 0.76
Stroke, RR ([4]; 150 mg vs. Warfarin): 0.64
Stroke, systemic embolism, pulmonary embolism, myocardial infarction death or major bleed (net benefit), RR ([4]; 150 mg vs. Warfarin): 0.90
Hepatotoxicity in serial measurement of liver function tests ([4]; in vivo): no evidence of hepatotoxicity
Fatal bleeding events, rate ([2]; all doses): 0.5 % per year
LFT abnormality ALT/ULN [2, 5]: >5x x ULN (4×) and >5x^# x ULN (2×) and >3x x ULN (5×) and >3x^# x ULN
LFT abnormality AST/ULN [2, 5]: >5x^# x ULN (4×) and >5x x ULN (4×) and >3x x ULN (5×)
